Data as given in patent US7332568B2, “Q3 SPARC deletion mutant and uses thereof” (Abraxis BioScience, Inc., priority 2005, dated 2008).

Tested on: gp60-mediated caveolar transcytosis
Experiment: Inhibition of transport of paclitaxel from ABX across endothelial monolayers
Assay type: cell-based, human
Excerpt: Transport was dependent on albumin.

Row | Molecule | effect on transport of paclitaxel from ABX across endothelial monolayers
1 | CCN1C(=O)C=CC1=O [NEM] | inhibited
2 | β-methyl cyclodextrin [BMC] | inhibited
